# From publication PMC11057203, “Synergy between Winter Flounder antimicrobial peptides” (npj Antimicrobials and Resistance, 2023)
# Non-standard residues stand in square brackets, D forms with d. Residues, ends and D or L forms follow the SMILES beside them.
# What was measured:
# [1] = system: Gram-negative bacteria; experiment: Broth microdilution MIC, Gram-negative panel; format: cell-based; conditions: Mueller–Hinton broth; span of Table 2 Gram-negative isolates
# Protocol: (§1) The antibacterial activity of the peptides was assessed through a modified two-fold broth microdilution assay with modal MICs generated from at least three biological replicate experiments. The method broadly followed EUCAST methodology, with non-cation adjusted Mueller Hinton replacing cation-adjusted Mueller Hinton. Peptides and antibiotics were diluted in a two-fold dilution in media down a 96 well plate. Bacteria were then added, back-diluted from an overnight culture, at a starting concentration of 5 × 10^5 CFU/ml. Plates were incubated, static at 37 °C, for 20 h and the OD600 was determined using a Clariostar plate reader (BMG Labtech).
# [2] = system: EMRSA-15 NCTC 13616; format: cell-based, Staphylococcus aureus
# Protocol: (§2) Synergy was measured using standard microdilution Chequerboard assays under the same conditions as the MICs with RPMI140 + 5% FBS used alongside MHB[18]. Twofold dilution series of each peptide or antibiotic were prepared in separate 96 well plates and then combined into one before addition of bacteria. The growth/no growth interface was determined using the same definition as the MIC. The fractional inhibitory concentration was calculated from the most synergistic well on the plate for three independent repeats, and presented as above. MICs were determined on the same plates as the FICs to increase reproducibility.
# [3] = system: P. aeruginosa RP73; format: cell-based, Pseudomonas aeruginosa
# Protocol: as §2
# [4] = system: A. baumannii ATCC 17978; experiment: Galleria mellonella burn wound infection model; format: in vivo; conditions: 5 mg/kg, topical 1 h after infection; n = 30 larvae; burn and infection untreated 46.0%
# Protocol: Prior to use, G. mellonella were surface decontaminated by immersion in 50% ethanol for 20 s and allowed to dry. All assays were performed on three separate occasions using a group size of 10 larvae; the larvae were kept in separate petri dishes and in the dark in a static incubator at 37 °C for the duration of the experiment. Fresh agar plates of A. baumannii ATCC 17978 were prepared immediately prior to the experiment. Larvae were burnt using the flat head of a nail which was heated in a blue Bunsen burner flame until red hot, cooled for 15 s and superficially applied for 2 s to generate a 2 mm^2 burn. Larvae were infected with a single colony of A. baumannii ATCC 17978 applied directly to the burn site. Treatment was applied topically 1 h after infection in a volume of 5 µl or sterile phosphate buffered saline as a control. Survival was monitored over 96 h.
# [5] = system: P. aeruginosa CAS4; experiment: Broth microdilution MIC; format: cell-based, Pseudomonas aeruginosa; conditions: Supplementary Table 1; Mueller-Hinton broth; unit not given
# Protocol: as §1
# [6] = system: P. aeruginosa CAS2; experiment: Broth microdilution MIC; format: cell-based, Pseudomonas aeruginosa; conditions: Supplementary Table 1; Mueller-Hinton broth; unit not given
# Protocol: as §1
# [7] = system: P. aeruginosa 372261; experiment: Broth microdilution MIC; format: cell-based, Pseudomonas aeruginosa; conditions: Supplementary Table 1; Mueller-Hinton broth; unit not given
# Protocol: as §1
# [8] = system: P. aeruginosa GH12; experiment: Broth microdilution MIC; format: cell-based, Pseudomonas aeruginosa; conditions: Supplementary Table 1; Mueller-Hinton broth; unit not given
# Protocol: as §1
# [9] = system: P. aeruginosa CAS3; experiment: Broth microdilution MIC; format: cell-based, Pseudomonas aeruginosa; conditions: Supplementary Table 1; Mueller-Hinton broth; unit not given
# Protocol: as §1
# [10] = system: Acinetobacter baumannii AYE; format: cell-based; conditions: Supplementary Table 1; Mueller-Hinton broth; unit inferred
# Protocol: (§3) The antibacterial activity of the peptides was assessed through a modified two-fold broth microdilution assay with modal MICs generated from at least three biological replicate experiments[37]. The method broadly followed EUCAST methodology, with non-cation adjusted Mueller Hinton replacing cation-adjusted Mueller Hinton. Peptides and antibiotics were diluted in a two-fold dilution in media down a 96 well plate. Bacteria were then added, back-diluted from an overnight culture, at a starting concentration of 5 × 10^5 CFU/ml. Plates were incubated, static at 37 °C, for 20 h and the OD600 was determined using a Clariostar plate reader (BMG Labtech).
# [11] = system: EMR Staphylococcus aureus-15 NCTC 13616; format: cell-based; conditions: Supplementary Table 1; Mueller-Hinton broth; unit inferred
# Protocol: as §3
# [12] = system: VS Enterococcus faecalis NCTC 775; format: cell-based; conditions: Supplementary Table 1; Mueller-Hinton broth; unit not given
# [13] = system: Pseudomonas aeruginosa PAO1; format: cell-based; conditions: Supplementary Table 1; Mueller-Hinton broth; unit inferred
# Protocol: as §3
# [14] = system: Klebsiella pneumoniae M6; format: cell-based; conditions: Supplementary Table 1; Mueller-Hinton broth; unit inferred
# Protocol: as §3
# [15] = system: Escherichia coli NCTC 12923; format: cell-based; conditions: Supplementary Table 1; Mueller-Hinton broth; unit inferred
# Protocol: as §3
# [16] = system: Staphylococcus aureus NCTC 6571; experiment: Broth microdilution MIC; format: cell-based; conditions: Supplementary Table 1; Mueller-Hinton broth; unit not given
# Protocol: as §1
# [17] = system: Staphylococcus aureus 1199B; experiment: Broth microdilution MIC; format: cell-based; conditions: Supplementary Table 1; Mueller-Hinton broth; unit not given
# Protocol: as §1
# [18] = system: Staphylococcus aureus USA300; experiment: Broth microdilution MIC; format: cell-based; conditions: Supplementary Table 1; Mueller-Hinton broth; unit not given
# Protocol: as §1
# [19] = system: VR Enterococcus faecalis NCTC 12201; format: cell-based; conditions: Supplementary Table 1; Mueller-Hinton broth; unit inferred
# Protocol: as §3
# [20] = system: Pseudomonas aeruginosa RP73; format: cell-based; conditions: Supplementary Table 1; Mueller-Hinton broth; unit inferred
# Protocol: as §3
# [21] = system: Klebsiella pneumoniae NCTC 13368; format: cell-based; conditions: Supplementary Table 1; Mueller-Hinton broth; unit inferred
# Protocol: as §3
# [22] = system: Acinetobacter baumannii ATCC 17978; format: cell-based; conditions: Supplementary Table 1; Mueller-Hinton broth; unit inferred
# Protocol: as §3
# [23] = system: VR Enterococcus faecium NCTC 12204; format: cell-based; conditions: Supplementary Table 1; Mueller-Hinton broth; unit inferred
# Protocol: as §3
# [24] = system: Pseudomonas aeruginosa NCTC 13437; format: cell-based; conditions: Supplementary Table 1; Mueller-Hinton broth; unit inferred
# Protocol: as §3
smiles,measurement,setting,value
CC[C@H](C)[C@H](NC(=O)[C@H](CCCNC(=N)N)NC(=O)[C@H](CCCNC(=N)N)NC(=O)[C@H](CC(C)C)NC(=O)[C@H](Cc1c[nH]c2ccccc12)NC(=O)[C@H](CCCCN)NC(=O)[C@H](CCCNC(=N)N)NC(=O)[C@H](CCCCN)NC(=O)[C@H](CCCNC(=N)N)NC(=O)[C@H](CCCNC(=N)N)NC(=O)CN)C(=O)NCC(=O)N[C@@H](CCCCN)C(=O)NCC(=O)N[C@H](C(=O)N[C@@H](CCCCN)C(=O)N[C@H](C(=O)N[C@H](C(=O)NCC(=O)NCC(=O)N[C@@H](C)C(=O)N[C@@H](C)C(=O)N[C@@H](CC(C)C)C(=O)N[C@@H](CC(=O)O)C(=O)N[C@@H](Cc1c[nH]cn1)C(=O)N[C@@H](CC(C)C)C(N)=O)[C@@H](C)CC)[C@@H](C)CC)C(C)C [WF1a-1] (H-GRRKRKWLRRIGKGVKIIGGAALDHL-NH2),MICs against Gram-negative isolates (range over panel),[1],0.25 to 8 µg/mL
CC(C)C[C@@H](NC(=O)[C@@H](Cc1ccc(O)cc1)NC(=O)[C@@H](Cc1c[nH]cn1)NC(=O)[C@H](NC(=O)[C@@H](CC(C)C)NC(=O)[C@@H](C)NC(=O)[C@@H](C)NC(=O)[C@@H](CCCNC(=N)N)NC(=O)CNC(=O)[C@H](NC(=O)[C@@H](Cc1c[nH]cn1)NC(=O)[C@@H](CCCNC(=N)N)NC(=O)CNC(=O)[C@H](NC(=O)[C@@H](Cc1c[nH]cn1)NC(=O)[C@@H](C)NC(=O)[C@@H](C)NC(=O)[C@@H](CCCNC(=N)N)NC(=O)[C@@H](CCCNC(=N)N)NC(=O)[C@@H](Cc1ccccc1)NC(=O)[C@@H](Cc1ccccc1)NC(=O)[C@@H](CO)NC(=O)CNC(=O)[C@@H](Cc1c[nH]c2ccccc12)NC(=O)CN)C(C)C)C(C)C)[C@H](C)O)C(N)=O [D-pleurocidin-KR] (H-G[dW]G[dS][dF][dF][dR][dR][dA][dA][dH][dV]G[dR][dH][dV]G[dR][dA][dA][dL][dT][dH][dY][dL]-NH2; N-terminus assumed),Pleurocidin MIC (analogue alone),[2],2 µg/ml
same,Pleurocidin MIC (analogue alone),[3],8-16 µg/ml
CNC(C)C1CCC(N)C(OC2C(N)CC(N)C(OC3OCC(C)(O)C(NC)C3O)C2O)O1 (stereo not drawn) [Gentamicin],Survival % @ 96 h,[4],86.7%
C[C@@H](O)[C@H]1C(=O)N2C(C(=O)O)=C(SCCN=CN)C[C@H]12 [Imipenem],Survival % @ 96 h,[4],70.0%
CC(C)C[C@@H](NC(=O)[C@@H](Cc1ccc(O)cc1)NC(=O)[C@@H](Cc1c[nH]cn1)NC(=O)[C@H](NC(=O)[C@@H](CC(C)C)NC(=O)[C@@H](C)NC(=O)[C@@H](C)NC(=O)[C@@H](CCCCN)NC(=O)CNC(=O)[C@H](NC(=O)[C@@H](Cc1c[nH]cn1)NC(=O)[C@@H](CCCCN)NC(=O)CNC(=O)[C@H](NC(=O)[C@@H](Cc1c[nH]cn1)NC(=O)[C@@H](C)NC(=O)[C@@H](C)NC(=O)[C@@H](CCCCN)NC(=O)[C@@H](CCCCN)NC(=O)[C@@H](Cc1ccccc1)NC(=O)[C@@H](Cc1ccccc1)NC(=O)[C@@H](CO)NC(=O)CNC(=O)[C@@H](Cc1c[nH]c2ccccc12)NC(=O)CN)C(C)C)C(C)C)[C@H](C)O)C(N)=O [D-pleurocidin] (H-G[dW]G[dS][dF][dF][dK][dK][dA][dA][dH][dV]G[dK][dH][dV]G[dK][dA][dA][dL][dT][dH][dY][dL]-NH2; N-terminus assumed),"Antimicrobial activity of D-enantiomers, P. aeruginosa CAS4",[5],8
same,"Antimicrobial activity of D-enantiomers, P. aeruginosa CAS2",[6],8
same,"Antimicrobial activity of D-enantiomers, P. aeruginosa 372261",[7],4
same,"Antimicrobial activity of D-enantiomers, P. aeruginosa GH12",[8],4
same,"Antimicrobial activity of D-enantiomers, P. aeruginosa CAS3",[9],4
same,"Antimicrobial activity of D-enantiomers, Acinetobacter baumannii AYE",[10],2 µg/mL
same,"Antimicrobial activity of D-enantiomers, EMR Staphylococcus aureus-15 NCTC 13616",[11],16 µg/mL
same,"Antimicrobial activity of D-enantiomers, VS Enterococcus faecalis NCTC 775",[12],16
same,"Antimicrobial activity of D-enantiomers, Pseudomonas aeruginosa PAO1",[13],2 µg/mL
same,"Antimicrobial activity of D-enantiomers, Klebsiella pneumoniae M6",[14],2 µg/mL
same,"Antimicrobial activity of D-enantiomers, Escherichia coli NCTC 12923",[15],1 µg/mL
same,"Antimicrobial activity of D-enantiomers, Staphylococcus aureus NCTC 6571",[16],16
same,"Antimicrobial activity of D-enantiomers, Staphylococcus aureus 1199B",[17],16
same,"Antimicrobial activity of D-enantiomers, Staphylococcus aureus USA300",[18],32
same,"Antimicrobial activity of D-enantiomers, VR Enterococcus faecalis NCTC 12201",[19],64 µg/mL
same,"Antimicrobial activity of D-enantiomers, P. aeruginosa RP73",[20],16 µg/mL
same,"Antimicrobial activity of D-enantiomers, Klebsiella pneumoniae NCTC 13368",[21],2 µg/mL
same,Pleurocidin MIC (analogue alone),[2],8-16 µg/ml
same,Pleurocidin MIC (analogue alone),[3],8-16 µg/ml
same,"Antimicrobial activity of D-enantiomers, Acinetobacter baumannii ATCC 17978",[22],1 µg/mL
same,"Antimicrobial activity of D-enantiomers, VR Enterococcus faecium NCTC 12204",[23],16 µg/mL
same,"Antimicrobial activity of D-enantiomers, Pseudomonas aeruginosa NCTC 13437",[24],8 µg/mL
C[C@@H](O)[C@H]1C(=O)N2C(C(=O)O)=C(S[C@@H]3CN[C@H](C(=O)N(C)C)C3)[C@H](C)[C@H]12 [Meropenem],Survival % @ 96 h,[4],70.0%
CC[C@@H](C)[C@@H](NC(=O)[C@@H](CCCNC(=N)N)NC(=O)[C@@H](CCCNC(=N)N)NC(=O)[C@@H](CC(C)C)NC(=O)[C@H](N)Cc1c[nH]c2ccccc12)C(=O)NCC(=O)N[C@H](CCCCN)C(=O)NCC(=O)N[C@@H](C(=O)N[C@H](CCCCN)C(=O)N[C@@H](C(=O)N[C@@H](C(=O)NCC(=O)NCC(=O)N[C@H](C)C(=O)N[C@H](C)C(=O)N[C@H](CC(C)C)C(=O)N[C@H](CC(=O)O)C(=O)N[C@H](Cc1c[nH]cn1)C(=O)N[C@H](CC(C)C)C(N)=O)[C@H](C)CC)[C@H](C)CC)C(C)C [D-WF1a] (H-[dW][dL][dR][dR][dI]G[dK]G[dV][dK][dI][dI]GG[dA][dA][dL][dD][dH][dL]-NH2; N-terminus assumed),D-WF1a MIC (alone),[2],512 µg/mL
same,D-WF1a MIC (alone),[3],512 µg/mL
